This is an account of results in ChEMBL document CHEMBL4052692, “Synthesis and biological activity of peptide proline-boronic acids as proteasome inhibitors” (Bioorg Med Chem, 2017).

Molecules are shown by their SMILES.

For assay [1], the system named is MGC-803. The assay is described as follows: Cytotoxicity against human MGC803 cells after 72 hrs by MTT assay. In kind it is functional, cell-based. The conditions noted are these: MGC-803, 72 h.
Assay [2] relates to MDA-MB-231. The assay is described as follows: Cytotoxicity against human MDA-MB-231 cells after 72 hrs by MTT assay. The assay is classed as functional, cell-based. The note with it: MDA-MB-231, 72 h.
Assay [3] deals with T1, Proteasome Macropain subunit MB1 (Homo sapiens, UniProt P28074).
T1 sequence (P28074 whole entry): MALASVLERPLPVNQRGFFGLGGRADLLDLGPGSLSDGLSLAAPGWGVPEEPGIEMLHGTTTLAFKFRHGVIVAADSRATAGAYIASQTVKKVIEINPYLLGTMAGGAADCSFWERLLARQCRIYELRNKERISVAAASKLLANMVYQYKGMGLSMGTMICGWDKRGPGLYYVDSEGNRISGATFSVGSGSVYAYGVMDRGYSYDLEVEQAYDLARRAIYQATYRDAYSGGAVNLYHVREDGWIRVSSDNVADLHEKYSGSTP
The assay is described as follows: Inhibition of chymotrypsin-like activity of 20S proteasome in human HL60 cells using Suc-LLVYaminoluciferin as substrate pretreated for 2 hrs followed by substrate addition by […]. The assay is classed as cell-based.

Assay [4] is described as follows: Selectivity ratio of IC50 for trypsin-like activity of 20S proteasome in human HL60 cells to IC50 for chymotrypsin-like activity of 20S proteasome in human HL60 cells.
The test system of assay [5] is A549. The assay is described as follows: Cytotoxicity against human A549 cells after 72 hrs by MTT assay. In kind it is functional, cell-based. The conditions noted are these: A549, 72 h.
Assay [6] deals with HCT-116. The assay is described as follows: Cytotoxicity against human HCT116 cells after 72 hrs by MTT assay. The assay is classed as functional, cell-based. The conditions noted are these: HCT-116, 72 h.
Assay [7] is described as follows: Cytotoxicity against human 95-D cells after 72 hrs by MTT assay. In kind it is functional, cell-based.
Assay [8] can be described thus: Selectivity ratio of IC50 for PGPH-like activity of 20S proteasome in human HL60 cells to IC50 for chymotrypsin-like activity of 20S proteasome in human HL60 cells.
In assay [9] the test system is HL-60. The assay is described as follows: Cytotoxicity against human HL60 cells after 72 hrs by MTT assay. The assay is classed as functional, cell-based. The conditions noted are these: HL-60, 72 h.

In turn, `CC(C)C[C@H](NC(=O)[C@H](Cc1ccccc1)NC(=O)N1CCc2ccccc2C1)C(=O)N1CCC[C@H]1B(O)O` yielded an IC50 in assay [1] greater than 10 µM. The same measure, in the same setting: the result for `CC(C)C[C@H](NC(=O)c1cnccn1)C(=O)N[C@@H](CC(C)C)C(=O)N1CCC[C@H]1B(O)O` reads 4.43 µM; that for `O=C(N[C@@H](Cc1ccccc1)C(=O)N[C@@H](Cc1ccc2ccccc2c1)C(=O)N1CCC[C@H]1B(O)O)c1cnccn1`, 0.11 µM. On the same count and under the same terms, then `CC(C)C[C@H](NC(=O)c1cnccn1)C(=O)N[C@@H](Cc1ccccc1)C(=O)N1CCC[C@H]1B(O)O`, with 0.0272 µM; and `O=C(N[C@@H](Cc1ccccc1)C(=O)N1CCC[C@H]1B(O)O)c1cnccn1`, with greater than 10 µM; and `O=C(N[C@@H](Cc1ccc2ccccc2c1)C(=O)N1CCC[C@H]1B(O)O)OCc1ccccc1`, with greater than 10 µM. As to `CC(C)C[C@H](NC(=O)N1CCc2ccccc2C1)C(=O)N[C@@H](Cc1ccc2ccccc2c1)C(=O)N1CCC[C@H]1B(O)O`, the 50% inhibitory concentration (IC50) in [1] amounted to 1.43 µM. Same read-out and setting: then `CC(C)C[C@H](NC(=O)OCc1ccccc1)C(=O)N[C@@H](CC(C)C)C(=O)N1CCC[C@H]1B(O)O`, with 0.0109 µM; and `O=C(N[C@@H](Cc1ccccc1)C(=O)N1CCC[C@H]1B(O)O)N1CCOCC1`, with greater than 10 µM. Still for that read-out and setting: then `O=C(N[C@@H](Cc1ccccc1)C(=O)N[C@@H](Cc1ccccc1)C(=O)N1CCC[C@H]1B(O)O)c1cnccn1`, with 0.478 µM; and `O=C(N[C@@H](Cc1ccc2ccccc2c1)C(=O)N1CCC[C@H]1B(O)O)[C@H](Cc1ccccc1)NC(=O)N1CCc2ccccc2C1`, with 2.42 µM; and `O=C(N[C@@H](Cc1ccc(O)cc1)C(=O)N1CCC[C@H]1B(O)O)[C@H](Cc1ccccc1)NC(=O)N1CCc2ccccc2C1`, with 7.64 µM. In assay [1], `O=C(N[C@@H](Cc1ccccc1)C(=O)N[C@@H](Cc1ccc2ccccc2c1)C(=O)N1CCC[C@H]1B(O)O)OCc1ccccc1` returned a half-maximal inhibitory concentration (IC50) of 0.149 µM. The compound `CC(C)C[C@H](NC(=O)c1cnccn1)C(=O)N[C@@H](Cc1ccc2ccccc2c1)C(=O)N1CCC[C@H]1B(O)O` gave an IC50 in [1] of 0.0296 µM. Take `O=C(N[C@@H](Cc1ccccc1)C(=O)N1CCC[C@H]1B(O)O)N1CCc2ccccc2C1`: the 50% inhibitory concentration (IC50) in assay [1] was greater than 10 µM. Compound `CC(C)C[C@H](NC(=O)N(C)Cc1ccccc1)C(=O)N[C@@H](Cc1ccc2ccccc2c1)C(=O)N1CCC[C@H]1B(O)O` yielded an IC50 in assay [1] of 1.65 µM.

Consider `CC(C)C[C@H](NC(=O)OCc1ccccc1)C(=O)N[C@@H](Cc1ccc2ccccc2c1)C(=O)N1CCC[C@H]1B(O)O`, for which the IC50 in assay [2] was 0.007 µM; in assay [3], 0.018 µM; in assay [1], 0.00976 to 0.01 µM; in assay [5] it was 5.99 µM; in assay [6] it was 0.069 µM; in assay [7], 0.012 µM. In assay [9], this compound showed an IC50 of less than 0.001 µM. Moreover, the “Ratio IC50” value in assay [4] is 92.2; in [8], 69.4.

Consider `O=C(N[C@@H](Cc1ccc2ccccc2c1)C(=O)N1CCC[C@H]1B(O)O)N1CCc2ccccc2C1`, for which half-maximal inhibition in assay [1] (IC50) was put at 5.36 µM. Same read-out and setting: then `CN(Cc1ccccc1)C(=O)N[C@@H](Cc1ccc2ccccc2c1)C(=O)N1CCC[C@H]1B(O)O`, with 7.48 µM; and `O=C(N[C@@H](Cc1ccccc1)C(=O)N1CCC[C@H]1B(O)O)[C@H](Cc1ccccc1)NC(=O)N1CCc2ccccc2C1`, with 4.17 µM.

As to `CC(C)C[C@H](NC(=O)[C@H](Cc1ccccc1)NC(=O)c1cnccn1)B(O)O` [BORTEZOMIB], the IC50 in [1] was 0.008 to 0.0133 µM; in assay [6], 0.001 µM; in assay [7], 0.038 µM; in assay [9] it was 0.008 µM.
